From patent US10004701B2, “Methods and compositions for treating infection” (UNIVERSITY OF ROCHESTER, priority 2012, dated 2018) come the findings set out here.

Common to all, as to assay: AK assay 384-well format, Prestwick library screening
Test [1] deals with K. pneumoniae. In kind it is cell-based, Klebsiella pneumoniae. To be noted: 50 μM final drug concentration; for fold induction at 50 µM: Klebsiella pneumoniae, 3 h.
Test [2] concerns E. faecium. It is filed as cell-based, Enterococcus faecium. To be noted: 50 μM final drug concentration; for fold induction at 50 µM: Enterococcus faecium, 3 h.
Test [3] has as its system S. aureus strain USA300-0114. It is filed as cell-based, Staphylococcus aureus. To be noted: 50 μM final drug concentration; for fold induction at 50 µM: Staphylococcus aureus, USA300, 3 h.
Test [4] has as its system P. aeruginosa. It is filed as cell-based, Pseudomonas aeruginosa. To be noted: 50 μM final drug concentration; for fold induction at 50 µM: Pseudomonas aeruginosa, 3 h.
The test system of test [5] is E. cloacae. It is filed as cell-based, Enterobacter cloacae. To be noted: 50 μM final drug concentration; for fold induction at 50 µM: Enterobacter cloacae, 3 h.
The subject of test [6] is A. baumannii strain 98-37-09. It is filed as cell-based, Acinetobacter baumannii. To be noted: 50 μM final drug concentration; for fold induction at 50 µM: Acinetobacter baumannii, 983709, 3 h.
Test [7] deals with E. coli. It is filed as cell-based, Escherichia coli. To be noted: 50 μM final drug concentration; for fold induction at 50 µM: Escherichia coli, 3 h.
The mark [8] stands for this setting: planktonic, cutoff for positive-scoring molecules 3-fold increase, read-out: AK-based Prestwick Library Screening Results, K. pneumoniae (fold increase in extracellular AK activity).
[9] abbreviates: planktonic, cutoff for positive-scoring molecules 3-fold increase, read-out: AK-based Prestwick Library Screening Results, E. faecium (fold increase in extracellular AK activity).
Where [10] appears, read: planktonic, cutoff for positive-scoring molecules 3-fold increase, read-out: AK-based Prestwick Library Screening Results, S. aureus (fold increase in extracellular AK activity).
[11] abbreviates: planktonic, cutoff for positive-scoring molecules 3-fold increase, read-out: AK-based Prestwick Library Screening Results, P. aeruginosa (fold increase in extracellular AK activity).
Setting [12] is: planktonic, cutoff for positive-scoring molecules 3-fold increase, read-out: AK-based Prestwick Library Screening Results, E. cloacae (fold increase in extracellular AK activity).
[13] abbreviates: planktonic, cutoff for positive-scoring molecules 3-fold increase, read-out: AK-based Prestwick Library Screening Results, A. baumannii (fold increase in extracellular AK activity).
Setting [14] is: planktonic, cutoff for positive-scoring molecules 3-fold increase, read-out: AK-based Prestwick Library Screening Results, E. coli (fold increase in extracellular AK activity).
Setting [15] is: planktonic, cutoff for positive 3-fold increase.
Setting [16] is: cutoff for positive-scoring molecules 3-fold increase, read-out: AK-based Prestwick Library Screening Results, K. pneumoniae (fold increase in extracellular AK activity).
Setting [17] is: cutoff for positive-scoring molecules 3-fold increase, read-out: AK-based Prestwick Library Screening Results, A. baumannii (fold increase in extracellular AK activity).

Like-named read-outs stand apart in the source and are kept apart here.

For the molecule `CC(C(=O)O)c1ccc(C(=O)c2cccs2)cc1` (centres unmarked) [Suprofen], the fold induction at 50 µM amounted to 0.7 in test [1] (setting [8]); 0.9 in test [2] (setting [9]); 0.6 in test [3] (setting [10]); 0.7 in test [4] (setting [11]); 0.9 in test [5] (setting [12]); 0.8 in test [6] (setting [13]). In addition, in test [7] (setting [14]), the fold induction at 50 µM is 0.7.
For `OCCN(CCO)c1nc(N2CCCCC2)c2nc(N(CCO)CCO)nc(N3CCCCC3)c2n1` [Dipyridamole], the fold induction at 50 µM in test [1] (planktonic K. pneumoniae, 384-well, cutoff for positive-scoring molecules 3-fold increase, read-out: AK-based Prestwick Library Screening Results: K. pneumoniae (increase in extracellular AK activity)) was 0.9; in test [2] (planktonic E. faecium, 384-well, cutoff for positive-scoring molecules 3-fold increase, read-out: AK-based Prestwick Library Screening Results: E. faecium (increase in extracellular AK activity)), 0.9; in test [3] (planktonic S. aureus, 384-well, cutoff for positive-scoring molecules 3-fold increase, read-out: AK-based Prestwick Library Screening Results: S. aureus (increase in extracellular AK activity)) it was 0.8; in test [4] (planktonic P. aeruginosa, 384-well, cutoff for positive-scoring molecules 3-fold increase, read-out: AK-based Prestwick Library Screening Results: P. aeruginosa (increase in extracellular AK activity)), 1.1; in test [5] (planktonic E. cloacae, 384-well, cutoff for positive-scoring molecules 3-fold increase, read-out: AK-based Prestwick Library Screening Results: E. cloacae (increase in extracellular AK activity)), 1.4; in test [6] (planktonic A. baumannii, 384-well, cutoff for positive-scoring molecules 3-fold increase, read-out: AK-based Prestwick Library Screening Results: A. baumannii (increase in extracellular AK activity)), 1.2. The fold induction at 50 µM in test [7] (planktonic E. coli, 384-well, cutoff for positive-scoring molecules 3-fold increase, read-out: AK-based Prestwick Library Screening Results: E. coli (increase in extracellular AK activity)) was 1.3.
Consider `CCOC(=O)n1ccn(C)c1=S` [Carbimazole], for which the fold induction at 50 µM in test [1] (planktonic K. pneumoniae, cutoff for positive-scoring molecules 3-fold increase, read-out: AK-based Prestwick Library Screening Results, K. pneumoniae (increase in extracellular AK activity)) is 0.7; in test [2] (planktonic E. faecium, cutoff for positive-scoring molecules 3-fold increase, read-out: AK-based Prestwick Library Screening Results, E. faecium (increase in extracellular AK activity)), 0.9; in test [3] (planktonic S. aureus, cutoff for positive-scoring molecules 3-fold increase, read-out: AK-based Prestwick Library Screening Results, S. aureus (increase in extracellular AK activity)), 0.6; in test [4] (planktonic P. aeruginosa, cutoff for positive-scoring molecules 3-fold increase, read-out: AK-based Prestwick Library Screening Results, P. aeruginosa (increase in extracellular AK activity)) it was 0.7; in test [5] (planktonic E. cloacae, cutoff for positive-scoring molecules 3-fold increase, read-out: AK-based Prestwick Library Screening Results, E. cloacae (increase in extracellular AK activity)), 1.2; in test [6] (planktonic A. baumannii, cutoff for positive-scoring molecules 3-fold increase, read-out: AK-based Prestwick Library Screening Results, A. baumannii (increase in extracellular AK activity)), 0.8. In addition, the fold induction at 50 µM in test [7] (planktonic E. coli, cutoff for positive-scoring molecules 3-fold increase, read-out: AK-based Prestwick Library Screening Results, E. coli (increase in extracellular AK activity)) is 0.8.
For the molecule `C=C(C)[C@@H]1[C@H]2OC(=O)[C@@H]1[C@]1(O)C[C@H]3O[C@]34C(=O)O[C@H]2[C@]14C` [Picrotoxinin], the fold induction at 50 µM in test [1] (planktonic, […], read-out: AK-based Prestwick Library Screening Results, K. pneumoniae (fold increase in extracellular AK activity)) came to 0.6; in test [2] (planktonic, […], read-out: AK-based Prestwick Library Screening Results, E. faecium (fold increase in extracellular AK activity)), 1; in test [3] (planktonic, […], read-out: AK-based Prestwick Library Screening Results, S. aureus (fold increase in extracellular AK activity)), 0.6; in test [4] (planktonic, […], read-out: AK-based Prestwick Library Screening Results, P. aeruginosa (fold increase in extracellular AK activity)), 0.6; in test [5] (planktonic, […], read-out: AK-based Prestwick Library Screening Results, E. cloacae (fold increase in extracellular AK activity)), 0.7; in test [6] (planktonic, […], read-out: AK-based Prestwick Library Screening Results, A. baumannii (fold increase in extracellular AK activity)), 0.7. Further, the fold induction at 50 µM in test [7] (planktonic, […], read-out: AK-based Prestwick Library Screening Results, E. coli (fold increase in extracellular AK activity)) is 0.6.
On to `O=c1c2ccccc2[se]n1-c1ccccc1` [Ebselen], for which the fold induction at 50 µM in test [1] (setting [8]) came to 0.6; in test [2] (setting [9]), 0.9; in test [3] (setting [10]) it was 0.5; in test [4] (setting [11]), 0.6; in test [5] (setting [12]) it was 0.7; in test [6] (setting [13]), 0.7. In addition, the fold induction at 50 µM in test [7] (setting [14]) was 0.6.
Consider `CC(=O)NC1[C@@H](O)OC(CO)[C@@H](O)[C@H]1O[C@H](C)C(=O)O` (stereo in doubt) [Muramic acid, N-acetyl], for which, in test [1] (setting [15]), the “AK-based Prestwick Library Screening Results, K. pneumoniae (fold increase in extracellular AK activity)” value was found to be 1.0. Besides, the “AK-based Prestwick Library Screening Results, E. faecium (fold increase in extracellular AK activity)” value in test [2] (setting [15]) is recorded as 1.0. Also, in test [3] (setting [15]), the “AK-based Prestwick Library Screening Results, S. aureus (fold increase in extracellular AK activity)” value was determined as 1.0. In addition, the “AK-based Prestwick Library Screening Results, P. aeruginosa (fold increase in extracellular AK activity)” value in test [4] (setting [15]) is 1.1. In test [5] (setting [15]), the “AK-based Prestwick Library Screening Results, E. cloacae (fold increase in extracellular AK activity)” value is on record as 1.4. In addition, the “AK-based Prestwick Library Screening Results, A. baumannii (fold increase in extracellular AK activity)” value in test [6] (setting [15]) was 1.5. In addition, in test [7] (setting [15]), the “AK-based Prestwick Library Screening Results, E. coli (fold increase in extracellular AK activity)” value came out at 1.1.
For `CC(=O)N(CC(O)CN(C(C)=O)c1c(I)c(C(=O)NCC(O)CO)c(I)c(C(=O)NCC(O)CO)c1I)c1c(I)c(C(=O)NCC(O)CO)c(I)c(C(=O)NCC(O)CO)c1I` (centres unmarked) [Iodixanol], the fold induction at 50 µM in test [1] (setting [16]) was 1; in test [2] ([…], read-out: AK-based Prestwick Library Screening Results, E. faecium (fold increase in extracellular AK activity)), 1.1; in test [3] ([…], read-out: AK-based Prestwick Library Screening Results, S. aureus (fold increase in extracellular AK activity)) it was 1.3; in test [4] ([…], read-out: AK-based Prestwick Library Screening Results, P. aeruginosa (fold increase in extracellular AK activity)), 1.2; in test [5] ([…], read-out: AK-based Prestwick Library Screening Results, E. cloacae (fold increase in extracellular AK activity)) it was 1.5; in test [6] (setting [17]), 1. In addition, the fold induction at 50 µM in test [7] ([…], read-out: AK-based Prestwick Library Screening Results, E. coli (fold increase in extracellular AK activity)) worked out at 1.3.
`COc1cc(C(=O)OC2CC3CCC(C2)N3C)ccc1O` (centres unmarked) [Fillalbin]: the fold induction at 50 µM in test [1] (setting [16]) was found to be 0.8; in test [2] (cutoff for positive-scoring molecules 3-fold increase, read-out: AK-based Prestwick Library Screening Results, E. faecium (fold increase in extracellular AK activity)) it was 1; in test [3] (cutoff for positive-scoring molecules 3-fold increase, read-out: AK-based Prestwick Library Screening Results, S. aureus (fold increase in extracellular AK activity)), 1; in test [4] (cutoff for positive-scoring molecules 3-fold increase, read-out: AK-based Prestwick Library Screening Results, P. aeruginosa (fold increase in extracellular AK activity)) it was 1.2; in test [5] (cutoff for positive-scoring molecules 3-fold increase, read-out: AK-based Prestwick Library Screening Results, E. cloacae (fold increase in extracellular AK activity)), 1.8; in test [6] (setting [17]), 0.9. Moreover, the fold induction at 50 µM in test [7] (cutoff for positive-scoring molecules 3-fold increase, read-out: AK-based Prestwick Library Screening Results, E. coli (fold increase in extracellular AK activity)) was 1.2.
